Results taken from patent publication US20220361497A1, “METHOD FOR CONTROLLING GROWTH OF MICROORGANISMS AND/OR BIOFILMS IN AN INDUSTRIAL PROCESS” (Kemira Oyj, priority 2017, published 2022).

Legend:
Type in all cases: cell-based
[1] = system: Meiothermus silvanus biofilms; assay: Removal of existing (preformed) biofilm, 96-microwell plate with peg lids, Crystal Violet staining; settings: SPW, 45° C., 150 rpm; for Biofilm quantity after 24 h pre-growth and 24 h contact time, Abs. at 595 nm / Biofilm reduction after 24 h pre-growth and 24 h contact time: separated isomer
Description: (§1) Pure cultures of Meiothermus silvanus, a microbe species commonly found in paper machine biofilms (Ekman J, Journal of Industrial Microbiology & Biotechnology 34:203-211) and Pseudoxanthomonas taiwanensis, another species commonly found in paper machine environments (Desjardins, E & Beaulieu, C, Journal of Industrial Microbiology & Biotechnology 30:141-145) were used to study the efficacy of various chemicals to prevent biofilm formation.
(§2) Biofilm tests were done in either synthetic commercial R2-broth (Lab M Ltd, UK) or fibre-containing synthetic paper machine water, SPW (prepared according to Peltola et al., J. Ind. Microbiol. Biotechnol. 2011, 38: 1719-1727) using 96-microwell plate wells with peg lids (Thermo Fischer Scientific Inc., USA). Plates were incubated at 45° C. with a rotary shaking (150 rpm) providing high flow in each well.
(§3) For experiments of removing already existing (preformed) biofilm wells of 96-microwell plates with peg-lids were filled with SPW, inoculated with the pure bacterial cultures. Biofilm was grown for 24 hours without addition of any chemical compound to be tested. In some experiments after 24 hours the procedure was repeated by emptying the wells and by addition of a fresh solution of SPW inoculated with pure bacterial culture, again without any test chemical compound. The original peg-lid was put back in place and biofilm was allowed to grow for additional 24 h, i.e., in total 48 h.
(§4) After 24 or 48 hours after starting the test, the wells were emptied and a fresh solution of SPW, inoculated with the pure bacterial cultures and with different amounts of chemical compounds to be tested were added and the original peg-lid was placed back in place. After an additional 2 or 24 hours the wells were emptied, rinsed and the peg lid and wells were left to dry.
(§5) The amount of biofilm formed on the microwells, and peg surfaces was quantified with a staining solution by adding 200 μl of 1% Crystal Violet (Merck Millipore KGaA, Germany) in methanol to each well and placing the peg-lid back on. After 3 minutes the wells were emptied, and the wells and pegs were rinsed 3 times with tap water. The attached Crystal Violet was dissolved into ethanol and the absorbance at 595 nm was measured. The values shown in the following tables are average absorbance from 8 replicate wells and pegs.
(§6) All absorbance values in Examples 1-6 are given actual measured values. In calculation for biofilm reduction percentages it was taken in account that the SPW alone for 2 days without any bacterial inoculum gave a background value of 0.14.

[2] = system: Pseudoxanthomonas taiwanensis biofilms; assay: as above; settings: SPW; for Biofilm quantity after 48 h pre-growth and 24 h contact time, Abs. at 595 nm / Biofilm reduction after 48 h pre-growth and 24 h contact time: 45° C., 150 rpm
Description: as §1, §2, §3, §4, §5, §6

[3] = system: Meiothermus silvanus biofilms; assay: Prevention of biofilm formation, 96-microwell plate with peg lids, Crystal Violet staining; settings: for Biofilm quantity after 48 h contact time, Abs. at 595 nm / Biofilm reduction after 48 h contact time / Biofilm quantity after 48 h contact time in SPW, Abs. at 595 nm / Biofilm reduction after 48 h contact time in SPW: SPW; for Biofilm quantity after 48 h contact time, Abs. at 595 nm / Biofilm reduction after 48 h contact time: 45° C., 150 rpm
Description: as §1, §2
(§7) For experiments of preventing biofilm formation wells of 96-microwell plates with peg-lids were filled with R2-broth or SPW, inoculated with the pure bacterial cultures and treated with different amounts of chemical compounds to be tested. Peg-lid was put on. After 24 hours the wells were emptied and a fresh solution of pure culture containing SPW or R2 broth with different amounts of test chemicals were added to the wells and the original peg-lid was put back in place. After an additional 24 hours, i.e., 48 hours after starting the test, the wells were emptied, rinsed and the peg lid and wells were left to dry.
as §5, §6

[4] = system: Pseudoxanthomonas taiwanensis biofilms; assay: as above; settings: for Biofilm quantity after 48 h contact time, Abs. at 595 nm / Biofilm reduction after 48 h contact time: SPW, 45° C., 150 rpm
Description: as §1, §2, §7, §5, §6

[5] = Compound B dosage 0.1 mg/l active
[6] = Compound B dosage 0.25 mg/l active
[7] = Compound B dosage 1 mg/l active
[8] = Compound B dosage 3 mg/l active
[9] = Compound B dosage 10 mg/l active
[10] = separated isomer, dosage 0.1 mg/l active
[11] = separated isomer, dosage 0.2 mg/l active

Compound: Cc1ccc(S(=O)(=O)C=CC#N)cc1 [Compound A, 3-[(4-methylphenyl)sulfonyl]-2-propenenitrile]
- Biofilm quantity after 48 h pre-growth and 2 h contact time, Abs. at 595 nm ([1]; dosage 0.5 mg/l active): 1.20
- Biofilm reduction after 48 h pre-growth and 2 h contact time ([1]; dosage 0.5 mg/l active): 8.0%
- Biofilm quantity after 48 h pre-growth and 2 h contact time, Abs. at 595 nm ([1]; dosage 1 mg/l active): 1.11
- Biofilm reduction after 48 h pre-growth and 2 h contact time ([1]; dosage 1 mg/l active): 16.3%
- Biofilm quantity after 48 h pre-growth and 2 h contact time, Abs. at 595 nm ([1]; dosage 2 mg/l active): 0.99
- Biofilm reduction after 48 h pre-growth and 2 h contact time ([1]; dosage 2 mg/l active): 26.6%
- Biofilm quantity after 48 h pre-growth and 24 h contact time, Abs. at 595 nm ([2]; dosage 0.2 mg/l active): 1.73
- Biofilm reduction after 48 h pre-growth and 24 h contact time ([2]; dosage 0.2 mg/l active): 32.2%
- Biofilm quantity after 48 h pre-growth and 24 h contact time, Abs. at 595 nm ([2]; dosage 0.5 mg/l active): 0.13
- Biofilm reduction after 48 h pre-growth and 24 h contact time ([2]; dosage 0.5 mg/l active): 100.2%
- removal of already formed biofilm (in words) ([2]; single dosage of 0.5 mg/l active compound, 48-hour pre-growth, 24 hours after addition): removed all of the biofilm
- Biofilm quantity after 48 h contact time, Abs. at 595 nm ([3]; dosage 0.01 mg/l active): 0.80
- Biofilm reduction after 48 h contact time ([3]; dosage 0.01 mg/l active): 21.4%
- Biofilm quantity after 48 h contact time, Abs. at 595 nm ([3]; dosage 0.03 mg/l active): 0.75
- Biofilm reduction after 48 h contact time ([3]; dosage 0.03 mg/l active): 27.4%
- Biofilm quantity after 48 h contact time, Abs. at 595 nm ([3]; dosage 0.08 mg/l active): 0.58
- Biofilm reduction after 48 h contact time ([3]; dosage 0.08 mg/l active): 47.6%
- Biofilm quantity after 48 h contact time, Abs. at 595 nm ([3]; dosage 0.13 mg/l active): 0.22
- Biofilm reduction after 48 h contact time ([3]; dosage 0.13 mg/l active): 90.5%
- Biofilm quantity after 48 h contact time, Abs. at 595 nm ([3]; dosage 0.20 mg/l active): 0.15
- Biofilm reduction after 48 h contact time ([3]; dosage 0.20 mg/l active): 98.8%
- biofilm reduction effect ([3]; dosage of 0.13 mg/l active, synthetic paper machine water, high temperature, fibres present, high flow): over 90%
- Biofilm quantity after 48 h contact time, Abs. at 595 nm ([4]; dosage 0.01 mg/l active): 1.42
- Biofilm reduction after 48 h contact time ([4]; dosage 0.01 mg/l active): 4.5%
- Biofilm quantity after 48 h contact time, Abs. at 595 nm ([4]; dosage 0.03 mg/l active): 1.26
- Biofilm reduction after 48 h contact time ([4]; dosage 0.03 mg/l active): 16.4%
- Biofilm quantity after 48 h contact time, Abs. at 595 nm ([4]; dosage 0.08 mg/l active): 0.88
- Biofilm reduction after 48 h contact time ([4]; dosage 0.08 mg/l active): 44.8%
- Biofilm quantity after 48 h contact time, Abs. at 595 nm ([4]; dosage 0.13 mg/l active): 0.55
- Biofilm reduction after 48 h contact time ([4]; dosage 0.13 mg/l active): 69.4%
- Biofilm quantity after 48 h contact time, Abs. at 595 nm ([4]; dosage 0.20 mg/l active): 0.39
- Biofilm reduction after 48 h contact time ([4]; dosage 0.20 mg/l active): 81.3%

Compound: Nc1ccc(S(=O)(=O)Nc2nccs2)cc1 [Compound B, 4-amino-N-2-thiazolyl-benzenesulphonamide]
- Biofilm quantity after 48 h contact time, Abs. at 595 nm [3, 5]: 0.62
- Biofilm reduction after 48 h contact time [3, 5]: 34.4%
- Biofilm quantity after 48 h contact time, Abs. at 595 nm [3, 6]: 0.18
- Biofilm reduction after 48 h contact time [3, 6]: 94.0%
- Biofilm quantity after 48 h contact time, Abs. at 595 nm [3, 7]: 0.15
- Biofilm reduction after 48 h contact time [3, 7]: 99.1%
- Biofilm quantity after 48 h contact time, Abs. at 595 nm [3, 8]: 0.16
- Biofilm reduction after 48 h contact time [3, 8]: 97.9%
- Biofilm quantity after 48 h contact time, Abs. at 595 nm [3, 9]: 0.18
- Biofilm reduction after 48 h contact time [3, 9]: 94.0%
- Biofilm quantity after 48 h contact time, Abs. at 595 nm [4, 6]: 2.35
- Biofilm reduction after 48 h contact time [4, 6]: 2.6%
- Biofilm quantity after 48 h contact time, Abs. at 595 nm [4, 7]: 2.04
- Biofilm reduction after 48 h contact time [4, 7]: 16.3%
- Biofilm quantity after 48 h contact time, Abs. at 595 nm [4, 8]: 0.84
- Biofilm reduction after 48 h contact time [4, 8]: 69.3%
- Biofilm quantity after 48 h contact time, Abs. at 595 nm [4, 9]: 0.54
- Biofilm reduction after 48 h contact time [4, 9]: 82.4%

Compound: N#CC(Br)(Br)C(N)=O [DBNPA, 2,2-dibromo-3-nitrilopropionamide, reference compound]
- dosage required to reach same (over 90%) biofilm reduction efficacy ([3]; active compound, synthetic paper machine water, high temperature, fibres present, high flow): 1 mg/L

Compound: Cc1ccc(S(=O)(=O)C=CC#N)cc1 [E-isomer of Compound A, 3-[(4-methylphenyl)sulfonyl]-2-propenenitrile]
- Biofilm quantity after 24 h pre-growth and 24 h contact time, Abs. at 595 nm ([1]; dosage 0.2 mg/l active): 0.90
- Biofilm reduction after 24 h pre-growth and 24 h contact time ([1]; dosage 0.2 mg/l active): 67.6%
- Biofilm quantity after 24 h pre-growth and 24 h contact time, Abs. at 595 nm ([1]; dosage 1 mg/l active): 0.26
- Biofilm reduction after 24 h pre-growth and 24 h contact time ([1]; dosage 1 mg/l active): 95.0%
- Biofilm quantity after 48 h contact time, Abs. at 595 nm [3, 10]: 0.40
- Biofilm reduction after 48 h contact time [3, 10]: 88.9%
- Biofilm quantity after 48 h contact time, Abs. at 595 nm [3, 11]: 0.16
- Biofilm reduction after 48 h contact time [3, 11]: 99.3%
- Biofilm quantity after 48 h contact time, Abs. at 595 nm [4, 10]: 0.36
- Biofilm reduction after 48 h contact time [4, 10]: 90.6%
- Biofilm quantity after 48 h contact time, Abs. at 595 nm [4, 11]: 0.16
- Biofilm reduction after 48 h contact time [4, 11]: 99.1%

Compound: Cc1ccc(S(=O)(=O)C=CC#N)cc1 [Z-isomer of Compound A, 3-[(4-methylphenyl)sulfonyl]-2-propenenitrile]
- Biofilm quantity after 24 h pre-growth and 24 h contact time, Abs. at 595 nm ([1]; dosage 0.2 mg/l active): 0.81
- Biofilm reduction after 24 h pre-growth and 24 h contact time ([1]; dosage 0.2 mg/l active): 71.3%
- Biofilm quantity after 24 h pre-growth and 24 h contact time, Abs. at 595 nm ([1]; dosage 1 mg/l active): 0.27
- Biofilm reduction after 24 h pre-growth and 24 h contact time ([1]; dosage 1 mg/l active): 94.6%
- Biofilm quantity after 48 h contact time, Abs. at 595 nm [3, 10]: 0.16
- Biofilm reduction after 48 h contact time [3, 10]: 99.1%
- Biofilm quantity after 48 h contact time, Abs. at 595 nm [3, 11]: 0.15
- Biofilm reduction after 48 h contact time [3, 11]: 99.4%
- Biofilm quantity after 48 h contact time, Abs. at 595 nm [4, 10]: 0.16
- Biofilm reduction after 48 h contact time [4, 10]: 99.3%
- Biofilm quantity after 48 h contact time, Abs. at 595 nm [4, 11]: 0.16
- Biofilm reduction after 48 h contact time [4, 11]: 99.3%

Compound: Gramicidin [reference compound]
- Biofilm quantity after 48 h contact time in SPW, Abs. at 595 nm ([3]; Gramicidin dosage 0.2 mg/l): 1.33
- Biofilm reduction after 48 h contact time in SPW ([3]; Gramicidin dosage 0.2 mg/l): 2.5%
- Biofilm quantity after 48 h contact time in SPW, Abs. at 595 nm ([3]; Gramicidin dosage 1 mg/l): 1.41
- Biofilm reduction after 48 h contact time in SPW ([3]; Gramicidin dosage 1 mg/l): −4.1%
- Biofilm quantity after 48 h contact time in SPW, Abs. at 595 nm ([3]; Gramicidin dosage 3 mg/l): 0.45
- Biofilm reduction after 48 h contact time in SPW ([3]; Gramicidin dosage 3 mg/l): 74.6%
- Biofilm quantity after 48 h contact time in SPW, Abs. at 595 nm ([3]; Gramicidin dosage 10 mg/l): 0.19
- Biofilm reduction after 48 h contact time in SPW ([3]; Gramicidin dosage 10 mg/l): 95.9%
- Biofilm quantity after 48 h contact time in SPW, Abs at 595 nm ([4]; Gramicidin dosage 3 mg/l): 2.25
- Biofilm reduction after 48 h contact time in SPW ([4]; Gramicidin dosage 3 mg/l): 5.4%
- Biofilm quantity after 48 h contact time in SPW, Abs at 595 nm ([4]; Gramicidin dosage 10 mg/l): 2.41
- Biofilm reduction after 48 h contact time in SPW ([4]; Gramicidin dosage 10 mg/l): −1.8%
- Biofilm quantity after 48 h contact time in SPW, Abs at 595 nm ([4]; Gramicidin dosage 25 mg/l): 2.42
- Biofilm reduction after 48 h contact time in SPW ([4]; Gramicidin dosage 25 mg/l): −2.2%
